From the OligoGym collection
Where “and” joins values, the source holds several entries; their conditions need not be identical. Identical values can stand only once. After the bases stand the sugars from the 5' end (letter, count) and the backbone: PS all phosphorothioate, else s phosphorothioate and o phosphodiester by linkage. Methylation of C is not given here. e = 2'-O-(2-methoxyethyl) (MOE); k = constrained ethyl (cEt); d = 2'-deoxy (DNA)

Columns and labels:
MALAT1 = conditions: ASO, A431, 0.005 µM
IRF4 = conditions: ASO

Row | Sequence | target mRNA inhibition (MALAT1) | target mRNA inhibition (IRF4; SK-MEL-28, 4 µM) | other results
1 | GTGTAGCACCTGGGTC (sugars k3 d10 k3, PS) | 64% and 46% |  | 
2 | TACCATATCCAAACAA (sugars k3 d10 k3, PS) | 11% |  | 
3 | GGCCTTTTAAAGTAGA (sugars k3 d10 k3, PS) | 28% |  | 
4 | AGTTGGTAATTACTCT (sugars k3 d10 k3, PS) | 40% |  | 
5 | AAGAATCCCCCCCAAG (sugars k3 d10 k3, PS) | 28% |  | 
6 | ATTTGAACCCCGTCCT (sugars k3 d10 k3, PS) | 31% |  | 
7 | ATATCTTAGTAACCTA (sugars k3 d10 k3, PS) | 15% |  | 
8 | GCTTTAAATGACGCAA (sugars k3 d10 k3, PS) | -22% |  | 
9 | ATTGTAGTTAATGTCA (sugars k3 d10 k3, PS) | 50% |  | 
10 | TGCAATACTGCAGATG (sugars k3 d10 k3, PS) | 20% |  | 
11 | CCCGCACGGAAATTTT (sugars k3 d10 k3, PS) | 17% |  | 
12 | CCAACCGTAACAGGCC (sugars k3 d10 k3, PS) | 27% |  | 
13 | ATTAATGCTAGTCCTC (sugars k3 d10 k3, PS) | 36% |  | 
14 | ACGAAGAGATACCTGT (sugars k3 d10 k3, PS) | 18% |  | 
15 | TTGGGAGTTACTTGCC (sugars k3 d10 k3, PS) | 70% and 73% |  | 
16 | TCCCTAACATGCAATA (sugars k3 d10 k3, PS) | 30% |  | 
17 | TACAAAAGCTACCATC (sugars k3 d10 k3, PS) | 12% |  | 
18 | AGCGAGTTCAAGTGGC (sugars k3 d10 k3, PS) | 27% |  | 
19 | CAAACTAAGCTACTAT (sugars k3 d10 k3, PS) | 15% |  | 
20 | TTGTCCTACTTTAAGC (sugars k3 d10 k3, PS) | 30% |  | 
21 | GTTCGCAGACAAAGTT (sugars k3 d10 k3, PS) | 36% |  | 
22 | GGGACGGTTGAGAAGT (sugars k3 d10 k3, PS) | 7% |  | 
23 | TCCATGGTTGTCCTAC (sugars k3 d10 k3, PS) | 35% |  | 
24 | CCGTCCTGGAAACCAG (sugars k3 d10 k3, PS) | 16% |  | 
25 | TTCCAGGATTAATGTA (sugars k3 d10 k3, PS) | 37% |  | 
26 | CTTCATTACCCCAACT (sugars k3 d10 k3, PS) | 14% |  | 

Row | Sequence | target mRNA inhibition (MALAT1) | target mRNA inhibition (IRF4; SK-MEL-28, 4 µM) | other results
27 | CAGGGCTTTACTTTCC (sugars k3 d10 k3, PS) | 2% |  | 
28 | CTAGATTCACTGAATC (sugars k3 d10 k3, PS) | 7% |  | 
29 | AAAAAGGCTCGATGGA (sugars k3 d10 k3, PS) | 52% |  | 
30 | AGTTTATCTGCAATCA (sugars k3 d10 k3, PS) | 46% and 59% |  | 
31 | TAATGCTAGTCCTCAG (sugars k3 d10 k3, PS) | 38% |  | 
32 | CATTACGCAACTGAGC (sugars k3 d10 k3, PS) | -1% |  | 
33 | GCTTGGGAAATCTTAG (sugars k3 d10 k3, PS) | 7% |  | 
34 | TTCAATCACAAATACG (sugars k3 d10 k3, PS) | 19% |  | 
35 | TTACCTAAACCCACCC (sugars k3 d10 k3, PS) | 38% |  | 
36 | GATTAATGTAGTGTAA (sugars k3 d10 k3, PS) | 23% |  | 
37 | GGAGTTGAGGCAAGTC (sugars k3 d10 k3, PS) | 41% |  | 
38 | AAGAACTAGTGGTTCC (sugars k3 d10 k3, PS) | 30% |  | 
39 | TTCTAACTTCTGCACC (sugars k3 d10 k3, PS) | 33% |  | 
40 | GCCACTCAAATGCCTA (sugars k3 d10 k3, PS) | 18% |  | 
41 | CTATACTTCTCCAATA (sugars k3 d10 k3, PS) | -13% |  | 
42 | GTGAATTCAACTGGAA (sugars k3 d10 k3, PS) | 50% |  | 
43 | ACCACTCTAAGATTGT (sugars k3 d10 k3, PS) | -11% |  | 
44 | CCGGAGCAGGAAGAAA (sugars k3 d10 k3, PS) | 23% |  | 
45 | TAATAGCAGCGGGATC (sugars k3 d10 k3, PS) | 30% |  | 
46 | CATAAGTAAGTTCCAG (sugars k3 d10 k3, PS) | 49% |  | 
47 | AGCACTGGCATCGAGA (sugars k3 d10 k3, PS) |  | 59% | 
48 | AAGTGTCTAAAGTCCC (sugars k2 d9 e3 k2, PS) |  |  | target mRNA inhibition (IRF4; MM.1R, 1 µM): 21% and 46%
49 | ACGCAGCCTCTAAGAA (sugars k3 d10 k3, PS) |  | 25% | 
50 | TAATGTAGGGATACAG (sugars k3 d10 k3, PS) |  | 78% | 
51 | GAGAATTCCAAACCTT (sugars k3 d10 k3, PS) |  | 76% | target mRNA inhibition (IRF4; MM.1R, 0.0625 µM): 6%; target mRNA inhibition (IRF4; MM.1R, 0.074 µM): 1%; target mRNA inhibition (IRF4; MM.1R, 0.222 µM): 13%; target mRNA inhibition (IRF4; MM.1R, 0.25 µM): 5%; target mRNA inhibition (IRF4; MM.1R, 0.666 µM): 38%; target mRNA inhibition (IRF4; MM.1R, 1 µM): 15%; target mRNA inhibition (IRF4; MM.1R, 2 µM): 69%; target mRNA inhibition (IRF4; MM.1R, 4 µM): 55%
52 | TAATTCTCCTATGCTG (sugars k3 d10 k3, PS) |  |  | target mRNA inhibition (IRF4; MM.1R, 1 µM): 3%

Row | Sequence | target mRNA inhibition (MALAT1) | target mRNA inhibition (IRF4; SK-MEL-28, 4 µM) | other results
53 | CGGAAGAAGGCACCTT (sugars k3 d10 k3, PS) |  | -12% | 
54 | ATCCTTAATTATGCAG (sugars k3 d10 k3, PS) |  | 39% | 
55 | GGCCAAATTGCAAAGG (sugars k3 d10 k3, PS) |  | 48% | 
56 | GTTTATTTCCTACTCT (sugars k3 d10 k3, PS) |  | 16% | 
57 | CTGCAAATCCCTCTTG (sugars k3 d10 k3, PS) |  | -33% | 
58 | GGAATGGCGGATAGAT (sugars k3 d10 k3, PS) |  | 33% | 
59 | CTGTTACCGATGCTTC (sugars kkddddddddddkeke, PS) |  |  | target mRNA inhibition (IRF4; MM.1R, 1 µM): 43% and 37%
60 | ACAGTGACTTGCATCC (sugars kkdddddddddkekek, PS) |  |  | target mRNA inhibition (IRF4; MM.1R, 1 µM): 32%
61 | ATCTATAAGATGTATA (sugars k4 d8 k4, PS) |  | 36% | 
62 | ACATAACTCAGGCAAG (sugars k3 d10 k3, PS) |  | 1% | 
63 | TACGAGAGGGTCTGAT (sugars k3 d10 k3, PS) |  | 0% | 
64 | TAGAAAGCCCTCACCT (sugars k3 d10 k3, PS) |  | 5% | 
65 | TCAGTTGTAAATGAGT (sugars k3 d10 k3, PS) |  | 72% | 
66 | GGGCTTCCTAGGTTTC (sugars k3 d10 k3, PS) |  | 39% | 
67 | GAAGCATTTTATCATC (sugars k3 d10 k3, PS) |  |  | target mRNA inhibition (IRF4; MM.1R, 1 µM): 4%
68 | CAAGCAGTGATGTCAG (sugars kkdddddddddkdkdk, PS) |  |  | target mRNA inhibition (IRF4; MM.1R, 1 µM): 46% and 49%
69 | GGGTACATGGCAGTGG (sugars k3 d10 k3, PS) |  | 68% | target mRNA inhibition (IRF4; SK-MEL-28, 0.185 µM): 19%; target mRNA inhibition (IRF4; SK-MEL-28, 5 µM): 76%; target mRNA inhibition (IRF4; SK-MEL-28, 15 µM): 92%
70 | AATCAGATGATGTCTA (sugars k3 d10 k3, PS) |  | -3% | 
71 | ACCCTCCCCAACTTAA (sugars k3 d10 k3, PS) |  | 10% | 
72 | AAGCATTTTATCATCC (sugars k3 d9 k3 e1, PS) |  |  | target mRNA inhibition (IRF4; MM.1R, 1 µM): 33%
73 | CCTAATCTACAACAAA (sugars k3 d10 k3, PS) |  | 15% | 
74 | CCAAATTCCCGGAGGA (sugars k3 d10 k3, PS) |  |  | target mRNA inhibition (IRF4; MM.1R, 1 µM): -25%
75 | AGCGACCCAAATGTGG (sugars k3 d10 k3, PS) |  |  | target mRNA inhibition (IRF4; MM.1R, 1 µM): -2%
76 | GACAAGTGCTAGGATT (sugars k3 d10 k3, PS) |  | 61% | 
77 | AACTAGCAGGGCACGC (sugars k3 d10 k3, PS) |  |  | target mRNA inhibition (IRF4; MM.1R, 1 µM): 2%
78 | TCTATAGTGTTCCAGG (sugars k3 d9 k3 e1, PS) |  |  | target mRNA inhibition (IRF4; MM.1R, 1 µM): 52%

Row | Sequence | target mRNA inhibition (MALAT1) | target mRNA inhibition (IRF4; SK-MEL-28, 4 µM) | other results
79 | TCATATGGCTAAACCT (sugars k3 d10 k3, PS) |  | 49% | 
80 | ACTTTTAGAGAGGAGA (sugars kdddddddddkekeke, PS) |  |  | target mRNA inhibition (IRF4; MM.1R, 1 µM): 17%
81 | AACCATGTTCCTGAAG (sugars k3 d10 k3, PS) |  | 41% | 
82 | GGCTCAACCTGGAAGG (sugars k3 d10 k3, PS) |  | 29% | 
83 | GTGTGATTAATTCTCC (sugars k3 d10 k3, PS) |  |  | target mRNA inhibition (IRF4; MM.1R, 0.0625 µM): -15%; target mRNA inhibition (IRF4; MM.1R, 0.25 µM): 8%; target mRNA inhibition (IRF4; MM.1R, 1 µM): 64% and 44%; target mRNA inhibition (IRF4; MM.1R, 4 µM): 87%
84 | CAGTTGTAAATGAGTC (sugars k3 d9 k3 e1, PS) |  |  | target mRNA inhibition (IRF4; MM.1R, 0.074 µM): 26%; target mRNA inhibition (IRF4; MM.1R, 0.222 µM): 42%; target mRNA inhibition (IRF4; MM.1R, 0.666 µM): 65%; target mRNA inhibition (IRF4; MM.1R, 1 µM): 68%; target mRNA inhibition (IRF4; MM.1R, 2 µM): 84%
85 | CAAGCAGTGATGTCAG (sugars kkdddddddddkekek, PS) |  |  | target mRNA inhibition (IRF4; MM.1R, 1 µM): 51% and 52%
86 | ACCTCAGTTTGTGAAG (sugars k2 d9 e3 k2, PS) |  |  | target mRNA inhibition (IRF4; MM.1R, 1 µM): 4%
87 | ACACTTTGTACGGGTC (sugars k3 d10 k3, PS) |  | 56% | 
88 | TACTGTTACCGATGCT (sugars k2 d9 e3 k2, PS) |  |  | target mRNA inhibition (IRF4; MM.1R, 1 µM): 29% and 8%
89 | AAGTTTACACTGGATC (sugars k3 d10 k3, PS) |  | 58% | 
90 | GCGCACTAAGTGGGCT (sugars k3 d10 k3, PS) |  | -10% | 
91 | GTGATAGCTGAGCTGA (sugars kddddddddddkekek, PS) |  |  | target mRNA inhibition (IRF4; MM.1R, 1 µM): 29%
92 | AAGCTTGATAAAGGCT (sugars kkdddddddddkdkdk, PS) |  |  | target mRNA inhibition (IRF4; MM.1R, 1 µM): -2%
93 | ACTGCTTGAGGTTTTC (sugars e1 k2 d9 k2 e2, PS) |  |  | target mRNA inhibition (IRF4; MM.1R, 1 µM): 46%
94 | CATAGCTAGTTCATTC (sugars k3 d10 k3, PS) |  | 35% | 
95 | CAGTGACTTGCATCCA (sugars kkdddddddddekeke, PS) |  |  | target mRNA inhibition (IRF4; MM.1R, 1 µM): 34%
96 | CCTCATTCACAACTAG (sugars k3 d10 k3, PS) |  |  | target mRNA inhibition (IRF4; MM.1R, 1 µM): 5%
97 | GTAACTCAGGCACCAC (sugars k3 d10 k3, PS) |  | 47% | 
98 | AAGCAAGTGTCTAAAG (sugars k3 d10 k3, PS) |  | 29% | 
99 | TTCCTGTAACAGGCTA (sugars k3 d10 k3, PS) |  | 63% and 77% | 
100 | GGCGGAGCTTCCCGTT (sugars k3 d10 k3, PS) |  | 26% | 
101 | ACGGAAGTTTACACTG (sugars kkddddddddddkeke, PS) |  |  | target mRNA inhibition (IRF4; MM.1R, 1 µM): 13%
102 | AGCATTTTATCATCCG (sugars kddddddddddkekek, PS) |  |  | target mRNA inhibition (IRF4; MM.1R, 1 µM): 36%
